Patent publication US20220281888A1, “BICYCLIC CARBOXYLATES AS MODULATORS OF TRANSPORTERS AND USES THEREOF” (NIROGY THERAPEUTICS, INC., priority 2019, published 2022)

Columns and labels:
[1] = test system: monocarboxylate transporters; experiment: Lactate detection assay in tumor cell lines; assay type: cell-based; conditions: intracellular lactate, Lactate-glo kit, 24 hours incubation; cell line not stated
Procedure: Cells are maintained in their appropriate growth medium (RPMI medium with 2 g/L glucose, 2 mM L-glutamine supplemented with 10% FBS and P/S (growth medium). 15,000-25,000 cells were seeded into white 96-well plates in growth medium and incubated for 24 hours at 37° C. and 5% CO2. A duplicate plate was also seeded for normalization by an MTS assay. Dry weight compound stocks were dissolved to a concentration of 10 mM in 100% DMSO. Compounds were further diluted in the assay medium (Lactate media: 10 mM lactate, 5% FBS, and 1×P/S; Glucose media: RPMI, 5% FBS, and 1×P/S). Growth media was changed 24 hours later to assay medium containing 10 μM compound or vehicle (DMSO) control and incubated for 24 hours. Conditioned media was collected and the cells were washed in 200 μL ice-cold PBS. […] After a 5 minute incubation, 12.5 μL Neutralization solution (1 M Trizma) is incubated for 1 minute. Intracellular lactate measurements were performed using a Lactate-glo kit (Promega). Briefly, the lactate detection reagent is mixed immediately before use and 50 μL is pipetted into each well and incubated at room temperature for 1 hour. Lactate is oxidized by enzymatic reactions to generate light. The luminescence is recorded using a Spectramax M5e plate reader and the concentration of lactate is determined using a known concentration of spiked lactate in PBS using GraphPad Prism.

[2] = test system: panel of solid and haematological tumor cell lines (e.g., Hs578t, SiHa, MDA-MB-231); experiment: MTS cell proliferation assay; assay type: cell-based; conditions: 72-96 hours incubation, 10 mM lactate medium or RPMI 1640 medium, cell line not given, read-out: Cytotoxicity [IC50: μM]
Procedure: The anti-proliferation effect of MCT inhibition was investigated across a panel of solid and haematological tumor cell lines. Cells were routinely cultured in their appropriate growth medium. On day 1, between 10,000-25,000 cells/well (e.g., Hs578t: 15,000 cells/well, SiHa: 10,000 cells/well, and MDA-MB-231: 25,000 cells/well) were plated into 96-well plates. 100 μL of phosphate buffered saline solution was added to the external wells to prevent media evaporation. Plates were incubated in growth medium overnight at 37° C. in the presence of 5% CO2. On day 2, dry weight compound stocks were dissolved to a concentration of 10 mM in 100% DMSO. Compounds were further diluted in the assay medium; 10 mM lactate medium (without glucose, pyruvate, and glutamine) or RPMI 1640 medium (without pyruvate and glutamine) to generate a final dose range of 1 nM to 10 μM. Growth medium in the 96-well plate was replaced with the assay medium (10 mM lactate medium or RPMI medium or appropriate medium), and compounds were added to each well in the plate at different concentrations via serial dilution or pre-prepared solutions in assay medium. […] The absorbance of the plates was read on a Spectramax M5e plate reader using […] measurement wavelength. Dose response curves were plotted and IC50 values were calculated using GraphPad Prism. […]

IC50 [1] [µM] | Compound | IC50 [2] [µM]
< 1 | CN(C(=O)NC1CCCCC1)c1cc2oc(=O)c(C(=O)O)cc2s1 [Example 7, 2-(3-cyclohexyl-1-methylureido)-5-oxo-5H-thieno[3,2-b]pyran-6-carboxylic acid] | 
< 1 | CCOc1ccccc1NC(=O)N(C)c1cc2oc(=O)c(C(=O)O)cc2s1 [Example 10, 2-(3-(2-ethoxyphenyl)-1-methylureido)-5-oxo-5H-thieno[3,2-b]pyran-6-carboxylic acid] | 
 | CN(C(=O)Nc1ccc(Cl)c(Cl)c1)c1cc2oc(=O)c(C(=O)O)cc2s1 [Example 39, 2-(3-(3,4-dichlorophenyl)-1-methylureido)-5-oxo-5H-thieno[3,2-b]pyran-6-carboxylic acid] | < 1
 | COc1cc(Cl)ccc1NC(=O)N(C)c1cc2oc(=O)c(C(=O)O)cc2s1 [Example 18, 2-(3-(4-chloro-2-methoxyphenyl)-1-methylureido)-5-oxo-5H-thieno[3,2-b]pyran-6-carboxylic acid] | < 1
